Laboratory results reported in US20030236213A1, “Mimics of acyl coenzyme-A comprising pantolactone and pantothenic acid derivatives, compositions thereof, and methods of cholesterol management and related uses” (priority 2002, published 2003).

Columns and labels:
primary rat hepatocytes = experiment: Synthesis of total lipids (14C-acetate labeling) in primary rat hepatocytes; format: cell-based; settings: Hepatocyte, 14C-acetate labeling 4 hr at 37° C., 1-300 μM, read-out: IC50, total lipid synthesis
Description: A male Sprague-Dawley rate was anesthetized by administration of sodium pentobarbitol by intraperitoneal at 80 mg/kg. In situ perfusion of the liver was performed as follows. The abdomen of the animal was opened, the portal vein canulated, and the liver perfused with WOSH solution (149 mM NaCl, 9.2 mM Na HEPES, 1.7 mM Fructose, 0.5 mM EGTA, 0.029 mM Phenol red, 10 U/ml heparin, pH 7.5) at a flow rate of 30 ml/min for 6 minutes. To digest the liver, DSC solution (6.7 mM KCl, 143 mM NaCl, 9.2 mM Na HEPES, 5 mM CaCl2-2H2O, 1.7 mM Fructose, 0.029 mM Phenol red, 0.2% BSA, 100 U/ml collagenase Type I, 160 BAEE/ml trypsin inhibitor, pH 7.5) was perfused through the liver at a flow rate of 30 ml/min for 6 minutes at a temperature of 37° C. After digestion, cells were dispersed in a solution of DMEM-(DMEM containing 2 mM GlutMax-1, 0.2% BSA, 5% FBS, 12 nM insulin, 1.2 μM hydrocortisone) to stop the digestion process. The crude cell suspension was filtered through three layers of stainless steel mesh with pore sizes of 250, 106, and 75 μm respectively. Filtered cells were centrifuged at 50×g for two minutes and the supernatant discarded. The resulting cell pellet was resuspended in DMEM and centrifuged again. […]

obese female Zucker rats = experiment: Oral daily treatment of obese female Zucker rats for fourteen days; format: in vivo, rat; settings: 14 days; for Glucose, Percent Change from Pre-treatment: blood, 6-hour fast; for Glucose, Percent Change from Pre-treatment / BHA, Percent Change from Pre-treatment / HDL-C, Percent Change from Pre-treatment / Insulin, Percent Change from Pre-treatment / NEFA, Percent Change from Pre-treatment / Non HDL-C, Percent Change from Pre-treatment / TC, Percent Change from Pre-treatment / TG, Percent Change from Pre-treatment: oral daily; for % wt. gain / HDL-C/non HDL-C: oral gavage daily; for BHA, Percent Change from Pre-treatment / HDL-C, Percent Change from Pre-treatment / Insulin, Percent Change from Pre-treatment / NEFA, Percent Change from Pre-treatment / Non HDL-C, Percent Change from Pre-treatment / TC, Percent Change from Pre-treatment / TG, Percent Change from Pre-treatment: serum
Description: In a number of different experiments, compounds described in Table 1 were administered daily to 11-13 week old chow fed obese female Zucker rats for 14 days in the morning by oral gavage in 20% ethanol/80% polyethylene glycol-200 (dosing vehicle)(“EP”). The dosing vehicle was administered to control animals in parallel experiments.
Body weight was determined daily prior to dosing. Animals were allowed free access to rodent chow and water throughout the study. Blood glucose was determined after a 6-hour fast in the afternoon without anesthesia from a tail vein. Serum was also prepared from a blood sample subsequently obtained from the orbital venous plexus (with O2/CO2 anesthesia) prior to and after one week treatment and used lipid and insulin determinations. At two weeks, blood glucose was again determined after a 6-hour fast without anesthesia from a tail vein. Soon thereafter, animals were sacrificed by CO2 inhalation in the afternoon and cardiac blood serum was collected and assessed for various lipids and insulin.

Row | SMILES | Glucose, Percent Change from Pre-treatment (obese female Zucker rats; 30 mg/kg/day) [%] | % wt. gain (obese female Zucker rats; 30 mg/kg/day) [%] | HDL-C/non HDL-C (obese female Zucker rats; 30 mg/kg/day) | BHA, Percent Change from Pre-treatment (obese female Zucker rats; 30 mg/kg/day) [%] | HDL-C, Percent Change from Pre-treatment (obese female Zucker rats; 30 mg/kg/day) [%] | Insulin, Percent Change from Pre-treatment (obese female Zucker rats; 30 mg/kg/day) [%] | NEFA, Percent Change from Pre-treatment (obese female Zucker rats; 30 mg/kg/day) [%] | Non HDL-C, Percent Change from Pre-treatment (obese female Zucker rats; 30 mg/kg/day) [%] | TC, Percent Change from Pre-treatment (obese female Zucker rats; 30 mg/kg/day) [%] | TG, Percent Change from Pre-treatment (obese female Zucker rats; 30 mg/kg/day) [%] | melting point [°C] | Glucose, Percent Change from Pre-treatment (obese female Zucker rats; 100 mg/kg/day) [%] | % wt. gain (obese female Zucker rats; 100 mg/kg/day) [%] | HDL-C/non HDL-C (obese female Zucker rats; 100 mg/kg/day) | BHA, Percent Change from Pre-treatment (obese female Zucker rats; 100 mg/kg/day) [%] | HDL-C, Percent Change from Pre-treatment (obese female Zucker rats; 100 mg/kg/day) [%] | Insulin, Percent Change from Pre-treatment (obese female Zucker rats; 100 mg/kg/day) [%] | NEFA, Percent Change from Pre-treatment (obese female Zucker rats; 100 mg/kg/day) [%] | Non HDL-C, Percent Change from Pre-treatment (obese female Zucker rats; 100 mg/kg/day) [%] | TC, Percent Change from Pre-treatment (obese female Zucker rats; 100 mg/kg/day) [%] | further results
1 | Cc1cc(OCCCCC(C)(C)CO)cc(C)c1NC(=O)C(O)C(C)(C)CO (centres unmarked) [Compound AC, 2,4-dihydroxy-N-[4-(6-hydroxy-5,5-dimethyl-hexyloxy)-2,6-dimethyl-phenyl]-3,3-dimethyl-butyramide] | – | – | – | – | – | – | – | – | – | – | – | – | – | – | – | – | – | – | – | – | IC50 (primary rat hepatocytes): 2100 nM
2 | CC(C)(CO)C(O)C(=O)NCCNC(=O)C(O)C(C)(C)CO (racemic) [Compound V2, N-[2-(2,4-Dihydroxy-3,3-dimethylbutyrylamino)-ethyl]-2,4-dihydroxy-3,3-dimethylbutyramide] | −8 | 10 | 2 | 58 | −20 | −53 | −23 | 23 | −13 | 36 | – | – | – | – | – | – | – | – | – | – | –
3 | CC(C)(CO)[C@@H](O)C(=O)NCCNC(=O)[C@H](O)C(C)(C)CO [Compound V3, (R,R)-N-[2-(2,4-Dihydroxy-3,3-dimethylbutyrylamino)-ethyl]-2,4-dihydroxy-3,3-dimethylbutyramide] | 3 | 9 | 2 | 69 | 7 | 11 | −16 | 16 | 9 | 14 | 124.8 to 124.9 | – | – | – | – | – | – | – | – | – | –
4 | CC(C)(CO)C(O)C(=O)NCCOCCNC(=O)C(O)C(C)(C)CO (centres unmarked) [U, N-{2-[2-(2,4-Dihydroxy-3,3-dimethylbutyrylamino)-ethoxy]-ethyl}-2,4-dihydroxy-3,3-dimethylbutyramide] | – | – | – | – | – | – | – | – | – | – | – | −3 | 9 | 2 | 254 | 14 | 6 | 13 | −2 | 8 | TG, Percent Change from Pre-treatment (obese female Zucker rats; 100 mg/kg/day): 1%
5 | CC(C)(CO)[C@H](O)C(=O)NCCNC(=O)[C@@H](O)C(C)(C)CO [Compound V4] | 2 | 12 | 1 | 79 | 5 | 4 | −28 | 75 | 23 | 22 | 124.8 to 124.9 | – | – | – | – | – | – | – | – | – | –
6 | CC(C)(CO)C(O)C(=O)NCc1cccnc1 (centres unmarked) [AB, 2,4-Dihydroxy-3,3-dimethyl-N-pyridin-3ylmethyl-butyramide] | – | – | – | – | – | – | – | – | – | – | 120 to 121.5 | – | – | – | – | – | – | – | – | – | –
7 | CC(C)(CO)[C@H](O)C(=O)NCCNC(=O)[C@H](O)C(C)(C)CO [Compound V1, (R,S)-N-[2-(2,4-Dihydroxy-3,3-dimethylbutyrylamino)-ethyl]-2,4-dihydroxy-3,3-dimethyl-butyramide] | – | – | – | – | – | – | – | – | – | – | – | −3 | 11 | 1 | 63 | 77 | −20 | 7 | 6 | 34 | TG, Percent Change from Pre-treatment (obese female Zucker rats; 100 mg/kg/day): 22%
8 | CCCCCOc1cc(C)c(NC(=O)C(O)C(C)(C)CO)c(C)c1 (centres unmarked) [AA, N-(2,6-dimethyl-4-pentyloxy-phenyl)-2,4-dihydroxy-3,3-dimethyl-butyramide] | – | – | – | – | – | – | – | – | – | – | 101 to 102.5 | 10 | 11 | 3 | 51 | 87 | −10 | −30 | −17 | 41 | TG, Percent Change from Pre-treatment (obese female Zucker rats; 100 mg/kg/day): −38%
